# Read-outs that look alike come from different tables or passages of the source.
# Columns and labels:
# C. neoformans H99 = assay type: cell-based, Cryptococcus neoformans; details: RPMI1640, 37 °C; for MIC of antifungal in combination with KKOO / MIC of antifungal in combination with KKOO-NH2: 48 h
# Experimental: All microdilution assays with fungi were carried out in accordance with CLSI protocols from M27 for yeasts and M38 for filamentous fungi, respectively, unless otherwise specified.[64],[65] Briefly, 96-well plates were charged with RPMI1640 media, with operating volume in the first column, 200 μL, and half operating volume, 100 μL, in the remaining wells. Drug stock solution in DMSO was aliquoted into the first well in each row. Half of the volume in the dosed well was serially diluted 2-fold until column 11. Column 11 was used as the negative growth control, and column 12 was used as the positive growth control. ON yeast cultures in YPD were washed twice in DD-H2O, resuspended in PBS, and adjusted to 5000 cfu/mL in RPMI. The 96-well plate was inoculated with 100 μL aliquots of cell suspension per well. […]
# (§1) To assess drug synergy, the initial media charged to the plate contained the peptide at twice the final operating concentration; the remaining processing steps were identical to the MIC experiment. Upon addition of 100 μL of inoculant, the final operating concentration was achieved. Control MIC plates were prepared alongside drug synergy plates to account for the day-to-day variability in any individual MIC. FIC index is computed using eq 1. All MIC assays and drug synergy assays were completed with two technical replicates per 96-well plate and a minimum of two biological replicates per drug combination. If a difference in MIC between the two technical replicates on the plate were observed, only the higher concentration was reported as the MIC to reduce the possibility of type 1 error (false positive) [drawing 1] 1
# Cn H99 = assay: microbe, parasite or virus in culture; assay type: cell-based, Cryptococcus neoformans; details: Cryptococcus neoformans, H99, 48 h, 37 °C, 48 h, read-out: MIC
# Experimental: (§2) Previous studies have shown that modifying microbiological media with salts such as CaCl2 can have a drastic effect on the growth of fungi and their responses to antifungals.[19],[35] In the case of CaCl2, the divalent cation, Ca^2+, is involved in fungal cell stress response. To understand how the peptide activity may involve calcium and stress response, the MICs of KKOO, KKOO-NH2, FLC, and CAS were assessed as a function of the calcium concentration in liquid YPD media. It was observed that calcium enrichment completely desensitized the wild-type strain to KKOO and KKOO-NH2, Tables 7 and 8, respectively. Effects of calcium enrichment on the susceptibility of Cryptococcus to CAS similar to literature values were recorded, Supporting Information, Table S7.[35]
# (§3) In order to control for the effects of enriching YPD with a divalent cation, MICs and ROS production were also measured as a function of the MgCl2 supplement at the same millimolar concentrations of cation as in the CaCl2-modified experiments. […] No peptide susceptibility changes were observed against Cn cdc50Δ in magnesium-enriched media, Table S9. ROS production in H99 induced by peptide exposure was inhibited after 30 min of treatment in the magnesium-enriched condition, similar to the levels observed in the calcium-enriched media at 16 μg/mL KKOO-NH2, Figure S1. […] The link between peptide activity and calcium homeostasis may be vital in understanding precisely how the peptide kills fungal cells and requires more research to elucidate.
# (§4) All microdilution assays with fungi were carried out in accordance with CLSI protocols from M27 for yeasts and M38 for filamentous fungi, respectively, unless otherwise specified.[64],[65] Briefly, 96-well plates were charged with RPMI1640 media, with operating volume in the first column, 200 μL, and half operating volume, 100 μL, in the remaining wells. Drug stock solution in DMSO was aliquoted into the first well in each row. Half of the volume in the dosed well was serially diluted 2-fold until column 11. Column 11 was used as the negative growth control, and column 12 was used as the positive growth control. ON yeast cultures in YPD were washed twice in DD-H2O, resuspended in PBS, and adjusted to 5000 cfu/mL in RPMI. The 96-well plate was inoculated with 100 μL aliquots of cell suspension per well. Plates were incubated at 37 °C for 2 days.
# Cn cdc50Δ = assay: microbe, parasite or virus in culture; assay type: cell-based, Cryptococcus neoformans; details: 48 h, 37 °C, 48 h
# Experimental: as §2, §3, §4
# Cg FKS2 S663P = assay: Drug synergy (MIC in peptide-supplemented media); assay type: cell-based, Candida glabrata; details: for MIC of antifungal in combination with KKOO / MIC of antifungal in combination with KKOO-NH2: RPMI1640, 37 °C, 48 h
# Experimental: as §4, §1
# Cg FKS1 S629P = assay: Drug synergy (MIC in peptide-supplemented media); assay type: cell-based, Candida glabrata; details: for MIC of antifungal in combination with KKOO / MIC of antifungal in combination with KKOO-NH2: RPMI1640, 37 °C, 48 h
# Experimental: as §4, §1
# C. glabrata 2001 = assay type: cell-based, Candida glabrata; details: for MIC of antifungal in combination with KKOO / MIC of antifungal in combination with KKOO-NH2: RPMI1640, 37 °C, 48 h
# Experimental: as §4, §1
# [1] = in the presence of 2 μg/mL KKOO-NH2
compound,measurement,setting,value
"CC[C@H](C)C[C@H](C)CCCCCCCCC(=O)N[C@H]1C[C@@H](O)[C@@H](NCCN)NC(=O)[C@@H]2[C@@H](O)CCN2C(=O)[C@H]([C@H](O)CCN)NC(=O)[C@H]([C@H](O)[C@@H](O)c2ccc(O)cc2)NC(=O)[C@@H]2C[C@@H](O)CN2C(=O)[C@H]([C@@H](C)O)NC1=O [CAS, caspofungin]",MIC of antifungal in combination with (FITC)KKOO,C. neoformans H99; +0 μg/mL (FITC)KKOO,16 µg/mL
same,MIC of antifungal in combination with KKOO,C. neoformans H99; +0 μg/mL KKOO (control),16 µg/mL
same,MIC of antifungal in combination with KKOO-NH2,C. neoformans H99; +0 μg/mL KKOO-NH2 (control),16 µg/mL
same,MIC of antifungal in combination with KKOO-NH2,C. neoformans H99; +1 μg/mL KKOO-NH2,16 µg/mL
same,MIC of antifungal in combination with KKOO,C. neoformans H99; +1 μg/mL KKOO,16 µg/mL
same,MIC of antifungal in combination with KKOO-NH2,C. neoformans H99; +2 μg/mL KKOO-NH2,16 µg/mL
same,MIC of antifungal in combination with KKOO,C. neoformans H99; +2 μg/mL KKOO,16 µg/mL
same,MIC of antifungal in combination with (FITC)KKOO,C. neoformans H99; +4 μg/mL (FITC)KKOO,16 µg/mL
same,MIC of antifungal in combination with KKOO-NH2,C. neoformans H99; +4 μg/mL KKOO-NH2,4 µg/mL
same,MIC of antifungal in combination with KKOO,C. neoformans H99; +4 μg/mL KKOO,16 µg/mL
same,MIC of antifungal in combination with (FITC)KKOO,C. neoformans H99; +8 μg/mL (FITC)KKOO,16 µg/mL
same,MIC of antifungal in combination with KKOO,C. neoformans H99; +8 μg/mL KKOO,8 µg/mL
same,MIC,Cn H99; YPD + 0 mM Ca2+,8 µg/mL
same,MIC,Cn H99; YPD + 0 mM Mg2+,8 µg/mL
same,MIC,Cn H99; YPD + 2.5 mM Ca2+,16 µg/mL
same,MIC,Cn H99; YPD + 2.5 mM Mg2+,16 µg/mL
same,MIC,Cn H99; YPD + 5 mM Ca2+,32 µg/mL
same,MIC,Cn H99; YPD + 5 mM Mg2+,16 µg/mL
same,MIC,Cn H99; YPD + 10 mM Ca2+,64 µg/mL
same,MIC,Cn H99; YPD + 10 mM Mg2+,32 µg/mL
same,MIC,Cn H99; YPD + 20 mM Mg2+,64 µg/mL
same,MIC,"Cn cdc50Δ; Cryptococcus neoformans, YPD + 0 mM Ca2+",4 µg/mL
same,MIC,"Cn cdc50Δ; Cryptococcus neoformans, YPD + 2.5 mM Ca2+",8 µg/mL
same,MIC,"Cn cdc50Δ; Cryptococcus neoformans, YPD + 5 mM Ca2+",16 µg/mL
same,MIC,"Cn cdc50Δ; Cryptococcus neoformans, YPD + 10 mM Ca2+",32 µg/mL
same,MIC,"Cn cdc50Δ; Cryptococcus neoformans, YPD + 20 mM Ca2+",8 µg/mL
same,MIC,"Cn cdc50Δ; YPD + 0 mM Mg2+, unit inferred",4 µg/mL
same,MIC,"Cn cdc50Δ; YPD + 2.5 mM Mg2+, unit inferred",8 µg/mL
same,MIC,"Cn cdc50Δ; YPD + 5 mM Mg2+, unit inferred",8 µg/mL
same,MIC,"Cn cdc50Δ; YPD + 10 mM Mg2+, unit inferred",8 µg/mL
same,MIC,"Cn cdc50Δ; YPD + 20 mM Mg2+, unit inferred",8 µg/mL
same,MIC of antifungal in combination with KKOO,Cg FKS2 S663P; +0 μg/mL KKOO (control),4 µg/mL
same,MIC of antifungal in combination with KKOO-NH2,Cg FKS2 S663P; +0 μg/mL KKOO-NH2 (control),4 µg/mL
same,MIC of antifungal in combination with KKOO-NH2,Cg FKS2 S663P; +1 μg/mL KKOO-NH2,2 µg/mL
same,MIC of antifungal in combination with KKOO,Cg FKS2 S663P; +1 μg/mL KKOO,2 µg/mL
same,MIC of antifungal in combination with KKOO-NH2,Cg FKS2 S663P; +2 μg/mL KKOO-NH2,1 µg/mL
same,MIC of antifungal in combination with KKOO,Cg FKS2 S663P; +2 μg/mL KKOO,2 µg/mL
same,MIC of antifungal in combination with KKOO-NH2,Cg FKS2 S663P; +4 μg/mL KKOO-NH2,1 µg/mL
same,MIC of antifungal in combination with KKOO,Cg FKS2 S663P; +4 μg/mL KKOO,1 µg/mL
same,reduction of MIC of antifungal,Cg FKS2 S663P; [1],4 fold
same,MIC of antifungal in combination with KKOO,Cg FKS1 S629P; +0 μg/mL KKOO (control),1 µg/mL
same,MIC of antifungal in combination with KKOO-NH2,Cg FKS1 S629P; +0 μg/mL KKOO-NH2 (control),1 µg/mL
same,MIC of antifungal in combination with KKOO-NH2,Cg FKS1 S629P; +1 μg/mL KKOO-NH2,0.5 µg/mL
same,MIC of antifungal in combination with KKOO,Cg FKS1 S629P; +1 μg/mL KKOO,0.5 µg/mL
same,MIC of antifungal in combination with KKOO-NH2,Cg FKS1 S629P; +2 μg/mL KKOO-NH2,0.062 µg/mL
same,MIC of antifungal in combination with KKOO,Cg FKS1 S629P; +2 μg/mL KKOO,0.125 µg/mL
same,MIC of antifungal in combination with KKOO-NH2,Cg FKS1 S629P; +4 μg/mL KKOO-NH2,0.004 µg/mL
same,MIC of antifungal in combination with KKOO,Cg FKS1 S629P; +4 μg/mL KKOO,0.008 µg/mL
same,reduction of MIC of antifungal,Cg FKS1 S629P; [1],16 fold
same,MIC of antifungal in combination with KKOO,C. glabrata 2001; +0 μg/mL KKOO (control),0.5 µg/mL
same,MIC of antifungal in combination with KKOO-NH2,C. glabrata 2001; +0 μg/mL KKOO-NH2 (control),0.5 µg/mL
same,MIC of antifungal in combination with KKOO-NH2,C. glabrata 2001; +1 μg/mL KKOO-NH2,0.5 µg/mL
same,MIC of antifungal in combination with KKOO,C. glabrata 2001; +1 μg/mL KKOO,0.5 µg/mL
same,MIC of antifungal in combination with KKOO-NH2,C. glabrata 2001; +2 μg/mL KKOO-NH2,0.125 µg/mL
same,MIC of antifungal in combination with KKOO,C. glabrata 2001; +2 μg/mL KKOO,0.25 µg/mL
same,MIC of antifungal in combination with KKOO-NH2,C. glabrata 2001; +4 μg/mL KKOO-NH2,0.004 µg/mL
same,MIC of antifungal in combination with KKOO,C. glabrata 2001; +4 μg/mL KKOO,0.016 µg/mL
same,MIC of antifungal in combination with KKOO,C. glabrata 2001; +8 μg/mL KKOO,0.556 µg/mL
same,reduction of MIC of antifungal,C. glabrata 2001; [1],4 fold

# Reference: article PMC11555678, “Improved Broad Spectrum Antifungal Drug Synergies with Cryptomycin, a Cdc50-Inspired Antifungal Peptide” (ACS Infectious Diseases, 2024)
